Values after ≈ are worked out from the molar mass of the structure shown.
What was measured:
KB cells = test: In Vitro KB Cell Cytotoxicity Assay; format: cell-based; details: Homo sapiens, 72 h, crystal violet staining, 3 days incubation
Method: Pharmacological Test 1 (In Vitro KB Cell Cytotoxicity Assay)
The cytotoxicity against KB cells was determined in accordance with a protein staining method (Grillis et al., Anal. Biochem., 159, 109 (1986)) using crystal violet. Stated more specifically, KB cells were incubated in an Eagle's minimum medium containing 10% FCS in a CO2 incubator at 37° C. The number of the cells was counted with a hemocytometer. A 100 μl quantity of the cell suspension, 3×10^4 cells/ml, was placed into each well of a 96-well plate and incubated for 24 hours. Portions (100 μl) of the drug diluted to final concentrations of 10, 1, 0.1, 0.01 and 0.001 μg/ml were added, as one dosage, to three wells, respectively. A drug-free medium was added to the wells of the control group. After incubation for 3 days, 25 μl of 25% glutaraldehyde was added and fixed for 15 minutes, followed by washing with water and drying. A 100 μl quantity of 0.05% crystal violet was added for 15 minutes of staining, followed by washing with water and drying. Extraction was performed with 100 μl of 0.05M NaH2 PO4 /EtOH (1:1 volume ratio). The absorbance was measured at a wavelength of 540 nm with a multi-scan spectrophotometer. The percent cell growth inhibition was calculated based on the absorbance by the following equation [formula]
The IC50 value (concentration of the drug for inhibiting the cell growth by 50%) was calculated through log-logit transformation of the dose-response curve and linear regression.

Sarcoma 180 = test: In Vivo Antitumor Activity against Sarcoma 180; details: for Mortality in 12 days: intraperitoneal, every four days, three times, ICR mice; for Cell growth inhibition rate: ip
Method: Pharmacological Test 2 (In Vivo Antitumor Activity against Sarcoma 180)
5×10^6 cells of transplantable mouse tumor, Sarcoma 180, were subcutaneously transplanted in the dorsal portion of 6-week-old male ICR mice (6-7 mice in each group). The test drug was dissolved in physiological saline containing 0.25 % Tween 80 and 3.5% dimethyl sulfoxide. The solution was intraperitoneally administered to the mice every four days, starting the administration 24 hours after the transplantation, three times in total. On the 12th day after the transplantation, the tumors were removed from the bodies and weighed. The average weight of the tumors in the test group and the corresponding weight in the control group were calculated to determine the ratio of tumor growth inhibition.

| SMILES | IC50 (KB cells) [µg/mL] | further results |
| --- | --- | --- |
| O=C(OC(c1ccccc1)c1ccccc1)[C@H]([C@@H](OCc1ccccc1)[C@H]1CN2C(=O)C[C@@H]2O1)N(Cc1ccccc1)C(=O)OCc1ccccc1 [Compound 42, diphenylmethyl 3-[(3'R,5'S)-7'-oxo-1'-aza-4'-oxabicyclo[3.2.0]hept-3'-yl]-2(S)-(N-benzyloxycarbonyl-N-benzyl)amino-3(R)-benzyloxypropionate] | 3 (≈ 4.31 µM) |  |
| O=C(OCc1ccccc1)[C@H](O)[C@H](O)[C@H]1CN2C(=O)C[C@@H]2O1 [Compound 7, benzyl(2R,3S)-2,3-dihydroxy-3-[(3'R,5'S)-7'-oxo-1'-aza-4'-oxabicyclo[3.2.0]hept-3'-yl]propionate] | 0.09 (≈ 0.293 µM) |  |
| O=C(OC(c1ccccc1)c1ccccc1)[C@H]([C@@H](OCc1ccccc1)[C@H]1CN2C(=O)C[C@H]2O1)N(Cc1ccccc1)C(=O)OCc1ccccc1 [Compound 43, diphenylmethyl 3-[(3'R,5'R)-7'-oxo-1'-aza-4'-oxabicyclo[3.2.0]hept-3'-yl]-2(S)-(N-benzyloxycarbonyl-N-benzyl)amino-3(R)-benzyloxypropionate] | 3 (≈ 4.31 µM) |  |
| N[C@H](C(=O)O)[C@@H](OCC1CC1)[C@H]1CN2C(=O)C[C@@H]2O1 [Compound 32e, 3-[(3'R,5'S)-7'-oxo-1'-aza-4'-oxabicyclo[3.2.0]hept-3'-yl]-2(S)-amino-3(R )-cyclopropylmethyloxypropionic acid] | 0.4 (≈ 1.48 µM) |  |
| N[C@@H](C(=O)O)[C@@H](OC(=O)c1ccccc1)[C@H]1CN2C(=O)C[C@@H]2O1 [Compound 12b, 2(R)-amino-3(R)-benzoyloxy-3-[(3'R,5'S)-7'-oxo-1'-aza-4'-oxabicyclo[3.2.0]hept-3'-yl]propionic acid] | 0.3 (≈ 0.937 µM) | Mortality in 12 days (Sarcoma 180; 5 mg/kg/day): 0/7; Mortality in 12 days (Sarcoma 180; 10 mg/kg/day): 0/7; Mortality in 12 days (Sarcoma 180; 20 mg/kg/day): 0/7; Cell growth inhibition rate (Sarcoma 180; 5 mg/kg): 19%; Cell growth inhibition rate (Sarcoma 180; 10 mg/kg): 19%; Cell growth inhibition rate (Sarcoma 180; 20 mg/kg): 31% |
| N[C@H](C(=O)O)[C@@H](OCc1ccccc1)[C@H]1CN2C(=O)C[C@@H]2O1 [Compound 32b, 3-[(3'R,5'S)-7'-oxo-1'-aza-4'-oxabicyclo[3.2.0]hept-3'-yl]-2(S)-amino-3(R)-benzyloxypropionic acid] | 0.06 (≈ 0.196 µM) | Mortality in 12 days (Sarcoma 180; 0.1 mg/kg/day): 0/6; Mortality in 12 days (Sarcoma 180; 1.0 mg/kg/day): 0/6; Cell growth inhibition rate (Sarcoma 180; 0.1 mg/kg): 12%; Cell growth inhibition rate (Sarcoma 180; 1 mg/kg): 38% |
| O=C(OCc1ccccc1)[C@@H](O)[C@H](O)[C@H]1CN2C(=O)C[C@@H]2O1 [Compound 5, benzyl(2S,3S)-2,3-dihydroxy-3-[(3'R,5'S)-7'-oxo-1'-aza-4'-oxabicyclo[3.2.0]hept-3'-yl]propionate] | 0.3 (≈ 0.976 µM) |  |
| CC(=O)O[C@@H]([C@H]1CN2C(=O)C[C@@H]2O1)[C@@H](N)C(=O)O [Compound 12a, 3(R)-acetoxy-2(R)-amino-3-[(3'R,5'S)-7'-oxo-1'-aza-4'-oxabicyclo[3.2.0]hept-3'-yl]propionic acid] | 3 (≈ 11.6 µM) |  |
| CO[C@H]([C@H](N)C(=O)O)[C@H]1CN2C(=O)C[C@@H]2O1 [Compound 32a, 3-[(3'R,5'S)-7'-oxo-1'-aza-4'-oxabicyclo[3.2.0]hept-3'-yl]-2(S)-amino-3(R)-methoxypropionic acid] | 0.03 (≈ 0.13 µM) |  |
| N[C@H](C(=O)O)[C@@H](OCc1ccc(F)cc1)[C@H]1CN2C(=O)C[C@@H]2O1 [Compound 32c, 3-[(3'R,5'S)-7'-oxo-1'-aza-4'-oxabicyclo[3.2.0]hept-3'-yl]-2(S)-amino-3(R )-(4"-fluorobenzyl)oxy-propionic acid] | 0.04 (≈ 0.123 µM) |  |
| COc1ccc(CO[C@H]([C@H](N)C(=O)O)[C@H]2CN3C(=O)C[C@@H]3O2)cc1 [Compound 32d, 3-[(3'R,5'S)-7'-oxo-1'-aza-4'-oxabicyclo[3.2.0]hept-3'-yl]-2(S)-amino-3(R)-(4"-methoxybenzyl)oxypropionic acid] | 0.09 (≈ 0.268 µM) |  |
| O=C(OCc1ccccc1)[C@H](O)[C@@H](O)[C@H]1CN2C(=O)C[C@@H]2O1 [Compound 4, benzyl(2R,3R)-2,3-dihydroxy-3-[(3'R,5'S)-7'-oxo-1'-aza-4'-oxabicylo[3.2.0]hept-3'-yl]propionate] | 0.07 (≈ 0.228 µM) |  |
| O=C(OCc1ccccc1)[C@@H](O)[C@@H](O)[C@H]1CN2C(=O)C[C@@H]2O1 [Compound 6, benzyl (2S,3R)-2,3-dihydroxy-3-[(3'R,5'S)-7'-oxo-1'-aza-4'-oxabicylo[3.2.0]hept-3'-yl]propionate] | 0.09 (≈ 0.293 µM) |  |

— patent US5585373A, “3-(7'-oxo-1'-aza-4'-oxabicyclo[3.2.0]-hept-3'-YL)propionic acid derivative as antitumor agent” (priority 1994, dated 1996)
